Like-named read-outs stand apart in the source and are kept apart here.

One may read the Ki as a measure of affinity in units of concentration, obtained from inhibition or displacement.

The target of assay [1] is T1, Human Neuropeptide Y2 Receptor (Homo sapiens, UniProt P49146).
T1 construct: purchased CHEMICON HTS066M
T1 sequence (P49146 1-381): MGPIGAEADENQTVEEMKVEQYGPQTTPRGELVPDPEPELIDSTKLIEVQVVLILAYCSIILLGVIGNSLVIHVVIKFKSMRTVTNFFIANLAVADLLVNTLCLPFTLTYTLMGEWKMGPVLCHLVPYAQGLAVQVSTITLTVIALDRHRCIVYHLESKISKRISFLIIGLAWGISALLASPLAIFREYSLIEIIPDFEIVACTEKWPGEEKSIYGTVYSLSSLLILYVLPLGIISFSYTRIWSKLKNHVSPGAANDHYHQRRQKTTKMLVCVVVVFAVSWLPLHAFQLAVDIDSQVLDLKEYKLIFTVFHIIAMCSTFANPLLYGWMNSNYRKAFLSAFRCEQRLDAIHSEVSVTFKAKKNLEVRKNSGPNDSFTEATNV
As to the kind of experiment: Radioligand binding competition assay (RLB). The settings on record: read-out: Ki. In a few lines: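 IC50 values come from nonlinear regression of sigmoidal dose-response curves of filter-bound radioactivity. Peptides competed with radioligand at human Y2 receptor membranes (0.5 μg protein/well) for 2 h at room temperature in pH 7.4 HEPES buffer containing Mg2+, Ca2+ and 0.2% ovalbumin.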

Assay [2] has as its system normal NMRI mice. In words: Effect on acute food intake in normal NMRI mice. To be noted: male NMRI mice, 10 nmol/kg subcutaneously once. In kind it is in vivo. In outline: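 A single 10 nmol/kg s.c. peptide dose was given 1 h before lights-off to male NMRI mice fasted from 6 h before the night phase (n=7-8). Intake was recorded continuously by microchip-identified HM-2 feeding channels. Values are normalized to vehicle controls (50 mM phosphate buffer pH7 with 5% Mannitol).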

[3] abbreviates: Table 3, human 125I-PYY (1-36) 0.02 nM, Y2 receptor membranes.

For `CC[C@H](C)[C@H](NC(=O)[C@H](CCC(=O)O)NC(=O)[C@H](CCC(=O)O)NC(=O)[C@@H]1CCCN1C(=O)[C@H](C)NC(=O)[C@H](C)NC(=O)[C@H](CC(=O)O)NC(=O)[C@H](CCC(=O)O)NC(=O)[C@H](CCC(=O)O)NC(=O)[C@@H]1CCCN1C(=O)[C@H](CCCCNC(=O)COCCOCCNC(=O)COCCOCCNC(=O)CC[C@H](NC(=O)CCCCCCCCCCCCCCCCC(=O)O)C(=O)O)NC(=O)[C@H](CCC(=O)O)NC(=O)[C@@H]1CCCN1C(=O)[C@H](C)NC(=O)CC(C)C)C(=O)N[C@@H](CCC(N)=O)C(=O)N[C@@H](CCCNC(=N)N)C(=O)N[C@@H](Cc1ccc(O)cc1)C(=O)N[C@@H](Cc1ccc(O)cc1)C(=O)N[C@H](C(=O)N[C@@H](CO)C(=O)N[C@@H](CC(C)C)C(=O)N[C@@H](CCCNC(=N)N)C(=O)N[C@@H](Cc1c[nH]cn1)C(=O)N[C@@H](Cc1ccc(O)cc1)C(=O)N[C@@H](Cc1ccc(O)cc1)C(=O)N[C@@H](CC(N)=O)C(=O)N[C@@H](Cc1c[nH]c2ccccc12)C(=O)N[C@@H](CC(C)C)C(=O)N[C@H](C(=O)N[C@@H](CCCNC(=N)N)C(=O)N[C@@H](CCC(N)=O)C(=O)N[C@@H](CCCNC(=N)N)C(=O)N[C@@H](Cc1ccc(O)cc1)C(N)=O)[C@@H](C)O)C(C)C` [Compound 124, N{alpha-4}-(3-methylbutanoyl)-N{epsilon-7}-[2-(2-{2-[2-(2-{2-[(4S)-4-carboxy-4-(17-carboxyheptadecanamido)butanamido]ethoxy}ethoxy)acetamido]ethoxy}ethoxy)acetamido]-[4A,7K,9E,13A,17I,18Q,22V,28Y,30W,31L]hPYY (4-36)], the Ki in assay [1] (setting [3]) was 500 pM. For the same compound, the “Acute Food Intake 24 h [% vehicle]” value in assay [2] amounted to 58 % vehicle.

In the case of `CC(C)CC(=O)N[C@@H](C)C(=O)N1CCC[C@H]1C(=O)N[C@@H](CCC(=O)O)C(=O)N[C@@H](CCCCNC(=O)COCCOCCNC(=O)COCCOCCNC(=O)CC[C@H](NC(=O)CCCCCCCCCCCCCCCCC(=O)O)C(=O)O)C(=O)N1CCC[C@H]1C(=O)N[C@@H](CCC(=O)O)C(=O)N[C@@H](CCC(=O)O)C(=O)N[C@@H](C)C(=O)N[C@@H](C)C(=O)N[C@@H](CO)C(=O)N1CCC[C@H]1C(=O)N[C@@H](CCC(=O)O)C(=O)N[C@@H](CCC(=O)O)C(=O)N[C@@H](CC(C)C)C(=O)N[C@@H](CCC(N)=O)C(=O)N[C@@H](CCCNC(=N)N)C(=O)N[C@@H](Cc1ccc(O)cc1)C(=O)N[C@@H](Cc1ccc(O)cc1)C(=O)N[C@H](C(=O)N[C@@H](C)C(=O)N[C@@H](CC(C)C)C(=O)N[C@@H](CCCNC(=N)N)C(=O)N[C@@H](Cc1c[nH]cn1)C(=O)N[C@@H](Cc1ccc(O)cc1)C(=O)N[C@@H](Cc1ccc(O)cc1)C(=O)N[C@@H](CC(N)=O)C(=O)N[C@@H](Cc1c[nH]c2ccccc12)C(=O)N[C@@H](CC(C)C)C(=O)N[C@H](C(=O)N[C@@H](CCCNC(=N)N)C(=O)N[C@@H](CCC(N)=O)C(=O)N[C@@H](CCCNC(=N)N)C(=O)N[C@@H](Cc1ccc(O)cc1)C(N)=O)[C@@H](C)O)C(C)C` [Compound 163, N{alpha-4}-(3-methylbutanoyl)-N{epsilon-7}-[2-(2-{2-[2-(2-{2-[(4S)-4-carboxy-4-(17-carboxyheptadecanamido)butanamido]ethoxy}ethoxy)acetamido]ethoxy}ethoxy)acetamido]-[4A,7K,9E,11A,18Q,22V,23A,28Y,30W,31L]hPYY (4-36)], the Ki in assay [1] (setting [3]) was 960 pM. Moreover, the “Acute Food Intake 24 h [% vehicle]” value in assay [2] was found to be 50 % vehicle.

Regarding `CC(C)CC(=O)N[C@@H](C)C(=O)N1CCC[C@H]1C(=O)N[C@@H](CCC(=O)O)C(=O)N[C@@H](CCCCNC(=O)COCCOCCNC(=O)COCCOCCNC(=O)CC[C@H](NC(=O)CCCCCCCCCCCCCCCCC(=O)O)C(=O)O)C(=O)N1CCC[C@H]1C(=O)N[C@@H](CCC(=O)O)C(=O)N[C@@H](CCC(=O)O)C(=O)N[C@@H](CCC(=O)O)C(=O)N[C@@H](C)C(=O)N[C@@H](CO)C(=O)N[C@@H](CCC(=O)O)C(=O)N[C@@H](CCC(=O)O)C(=O)N[C@@H](CCC(=O)O)C(=O)N[C@@H](CC(C)C)C(=O)N[C@@H](CCC(N)=O)C(=O)N[C@@H](CCCNC(=N)N)C(=O)N[C@@H](Cc1ccc(O)cc1)C(=O)N[C@@H](Cc1ccc(O)cc1)C(=O)N[C@H](C(=O)N[C@@H](CO)C(=O)N[C@@H](CC(C)C)C(=O)N[C@@H](CCCNC(=N)N)C(=O)N[C@@H](Cc1c[nH]cn1)C(=O)N[C@@H](Cc1ccc(O)cc1)C(=O)N[C@@H](Cc1ccc(O)cc1)C(=O)N[C@@H](CC(N)=O)C(=O)N[C@@H](Cc1c[nH]c2ccccc12)C(=O)N[C@@H](CC(C)C)C(=O)N[C@H](C(=O)N[C@@H](CCCNC(=N)N)C(=O)N[C@@H](CCC(N)=O)C(=O)N[C@@H](CCCNC(=N)N)C(=O)N[C@@H](Cc1ccc(O)cc1)C(N)=O)[C@@H](C)O)C(C)C` [Compound 79, N{alpha-4}-(3-methylbutanoyl)-N{epsilon-7}-[2-(2-{2-[2-(2-{2-[(4S)-4-carboxy-4-(17-carboxyheptadecanamido)butanamido]ethoxy}ethoxy)acetamido]ethoxy}ethoxy)acetamido]-[4A,7K,9E,11E,14E,18Q,22V,28Y,30W,31L]hPYY (4-36)], in assay [1], the Ki stood at 4520 pM. Besides, the “Acute Food Intake 24 h [% vehicle]” value in assay [2] was determined as 75 % vehicle.

For the compound `CC[C@H](C)[C@H](NC(=O)[C@H](CCC(=O)O)NC(=O)[C@H](CCC(=O)O)NC(=O)[C@@H]1CCCN1C(=O)[C@H](CCC(=O)O)NC(=O)[C@H](C)NC(=O)[C@H](CC(=O)O)NC(=O)[C@H](CCC(=O)O)NC(=O)[C@H](CCC(=O)O)NC(=O)[C@@H]1CCCN1C(=O)[C@H](CCCCNC(=O)COCCOCCNC(=O)COCCOCCNC(=O)CC[C@H](NC(=O)CCCCCCCCCCCCCCCCC(=O)O)C(=O)O)NC(=O)[C@H](CCC(=O)O)NC(=O)[C@@H]1CCCN1C(=O)[C@H](C)NC(=O)CC(C)C)C(=O)N[C@@H](CCC(N)=O)C(=O)N[C@@H](CCCNC(=N)N)C(=O)N[C@@H](Cc1ccc(O)cc1)C(=O)N[C@@H](Cc1ccc(O)cc1)C(=O)N[C@H](C(=O)N[C@@H](CO)C(=O)N[C@@H](CC(C)C)C(=O)N[C@@H](CCCNC(=N)N)C(=O)N[C@@H](Cc1c[nH]cn1)C(=O)N[C@@H](Cc1ccc(O)cc1)C(=O)N[C@@H](Cc1ccc(O)cc1)C(=O)N[C@@H](CC(N)=O)C(=O)N[C@@H](Cc1c[nH]c2ccccc12)C(=O)N[C@@H](CC(C)C)C(=O)N[C@H](C(=O)N[C@@H](CCCNC(=N)N)C(=O)N[C@@H](CCC(N)=O)C(=O)N[C@@H](CCCNC(=N)N)C(=O)N[C@@H](Cc1ccc(O)cc1)C(N)=O)[C@@H](C)O)C(C)C` [Compound 110, N{alpha-4}-(3-methylbutanoyl)-N{epsilon-7}-[2-(2-{2-[2-(2-{2-[(4S)-4-carboxy-4-(17-carboxyheptadecanamido)butanamido]ethoxy}ethoxy)acetamido]ethoxy}ethoxy)acetamido]-[4A,7K,9E,13E,17I,18Q,22V,28Y,30W,31L]hPYY (4-36)], the Ki in assay [1] (setting [3]) worked out at 770 pM. The “Acute Food Intake 24 h [% vehicle]” value in assay [2] came to 67 % vehicle.

For the compound `CC[C@H](C)[C@H](NC(=O)[C@H](CCC(=O)O)NC(=O)[C@H](CCC(=O)O)NC(=O)[C@H](CCC(=O)O)NC(=O)[C@H](CO)NC(=O)[C@H](C)NC(=O)[C@H](CC(=O)O)NC(=O)[C@H](CCC(=O)O)NC(=O)[C@H](CCC(=O)O)NC(=O)[C@@H]1CCCN1C(=O)[C@H](CCCCNC(=O)COCCOCCNC(=O)COCCOCCNC(=O)CC[C@H](NC(=O)CCCCCCCCCCCCCCCCC(=O)O)C(=O)O)NC(=O)[C@H](CCC(=O)O)NC(=O)[C@@H]1CCCN1C(=O)[C@H](C)NC(=O)CC(C)C)C(=O)N[C@@H](CCC(N)=O)C(=O)N[C@@H](CCCNC(=N)N)C(=O)N[C@@H](Cc1ccc(O)cc1)C(=O)N[C@@H](Cc1ccc(O)cc1)C(=O)N[C@H](C(=O)N[C@@H](CO)C(=O)N[C@@H](CC(C)C)C(=O)N[C@@H](CCCNC(=N)N)C(=O)N[C@@H](Cc1c[nH]cn1)C(=O)N[C@@H](Cc1ccc(O)cc1)C(=O)N[C@@H](Cc1ccc(O)cc1)C(=O)N[C@@H](CC(N)=O)C(=O)N[C@@H](Cc1c[nH]c2ccccc12)C(=O)N[C@@H](CC(C)C)C(=O)N[C@H](C(=O)N[C@@H](CCCNC(=N)N)C(=O)N[C@@H](CCC(N)=O)C(=O)N[C@@H](CCCNC(=N)N)C(=O)N[C@@H](Cc1ccc(O)cc1)C(N)=O)[C@@H](C)O)C(C)C` [Compound 193, N{alpha-4}-(3-methylbutanoyl)-N{epsilon-7}-[2-(2-{2-[2-(2-{2-[(4S)-4-carboxy-4-(17-carboxyheptadecanamido)butanamido]ethoxy}ethoxy)acetamido]ethoxy}ethoxy)acetamido]-[4A,7K,9E,14E,17I,18Q,22V,28Y,30W,31L]hPYY (4-36)], in assay [1] (setting [3]), the Ki was determined as 3810 pM. The “Acute Food Intake 24 h [% vehicle]” value in assay [2] is 57 % vehicle.

The record behind these values is US12559529B2, “NPY2 receptor agonists” (Boehringer Ingelheim International GmbH, priority 2019, dated 2026).
